Reference: ChEMBL document CHEMBL3885861, “Open TG-GATES”

Species: Rattus norvegicus
Assay: Open TG-GATES - Regimen: Single
Type: toxicity, organism-based, Sprague-Dawley
Design: regimen Single, gender Male, age 6 weeks
Details: in vivo, po, 0 mg/kg, route gavage, dose level Control; for APTT / Bas / Eos / Fbg / Hb / Ht / Lym / MCH / MCHC / MCV / Mono / Neu / PT / Plat / RBC / Ret / WBC: tissue Blood; for KIDNEY_L / KIDNEY_R / KIDNEY_TOTAL: tissue Kidney; for LIVER: tissue Liver; for A/G / ALP / ALT / AST / BUN / CRE / Ca / Cl / DBIL / GLC / IP / K / LDH / Na / PL / RALB / TBIL / TC / TG / TP / gamma-GTP: tissue Plasma

SMILES: CCc1oc2ccccc2c1C(=O)c1cc(Br)c(O)c(Br)c1 [BENZBROMARONE]
- TERMINAL_BW (3 h): 217.1 g
- APTT (3 h): 17.3 s
- Bas (3 h): 0%
- Eos (3 h): 1%
- Fbg (3 h): 226.8 mg/dL
- Hb (3 h): 13.8 g/dL
- Ht (3 h): 40.9%
- Lym (3 h): 76.4%
- MCH (3 h): 22.2 pg
- MCHC (3 h): 33.8%
- MCV (3 h): 65.9 fL
- Mono (3 h): 7.4%
- Neu (3 h): 15.2%
- PT (3 h): 11.9 s
- Plat (3 h): 104.6 x10_4/uL
- RBC (3 h): 621.4 x10_4/ul
- Ret (3 h): 7.9%
- WBC (3 h): 127.8 x10_2/uL
- KIDNEY_L (3 h): 0.9 g
- KIDNEY_R (3 h): 0.9 g
- KIDNEY_TOTAL (3 h): 1.9 g
- LIVER (3 h): 10.1 g
- A/G (3 h): 2
- ALP (3 h): 745.6 IU/L
- ALT (3 h): 38.4 IU/L
- AST (3 h): 65.4 IU/L
- BUN (3 h): 12.2 mg/dL
- CRE (3 h): 0.6 mg/dL
- Ca (3 h): 10.8 mg/dL
- Cl (3 h): 104 meq/L
- DBIL (3 h): 0.046 mg/dL
- GLC (3 h): 191 mg/dL
- IP (3 h): 9.7 mg/dL
- K (3 h): 4.8 meq/L
- LDH (3 h): 81.6 IU/L
- Na (3 h): 138.8 meq/L
- PL (3 h): 143.6 mg/dL
- RALB (3 h): 3.8 g/dL
- TBIL (3 h): 0.3 mg/dL
- TC (3 h): 75 mg/dL
- TG (3 h): 84.2 mg/dL
- TP (3 h): 5.7 g/dL
- gamma-GTP (3 h): 1.8 IU/L
- TERMINAL_BW (6 h): 212.5 g
- APTT (6 h): 16 s
- Bas (6 h): 0%
- Eos (6 h): 1%
- Fbg (6 h): 230.2 mg/dL
- Hb (6 h): 14.1 g/dL
- Ht (6 h): 41.9%
- Lym (6 h): 79.8%
- MCH (6 h): 21.8 pg
- MCHC (6 h): 33.6%
- MCV (6 h): 65 fL
- Mono (6 h): 6.2%
- Neu (6 h): 13.6%
- PT (6 h): 12.2 s
- Plat (6 h): 103.2 x10_4/uL
- RBC (6 h): 645.6 x10_4/ul
- Ret (6 h): 7.9%
- WBC (6 h): 125.2 x10_2/uL
- KIDNEY_L (6 h): 1 g
- KIDNEY_R (6 h): 1 g
- KIDNEY_TOTAL (6 h): 2.1 g
- LIVER (6 h): 9.9 g
- A/G (6 h): 2
- ALP (6 h): 690.6 IU/L
- ALT (6 h): 28.2 IU/L
- AST (6 h): 57.4 IU/L
- BUN (6 h): 10.6 mg/dL
- CRE (6 h): 0.5 mg/dL
- Ca (6 h): 10.5 mg/dL
- Cl (6 h): 104.6 meq/L
- DBIL (6 h): 0.006 mg/dL
- GLC (6 h): 182.6 mg/dL
- IP (6 h): 9.7 mg/dL
- K (6 h): 5.2 meq/L
- LDH (6 h): 82.8 IU/L
- Na (6 h): 138.4 meq/L
- PL (6 h): 142.2 mg/dL
- RALB (6 h): 3.8 g/dL
- TBIL (6 h): 0.4 mg/dL
- TC (6 h): 72.4 mg/dL
- TG (6 h): 69.2 mg/dL
- TP (6 h): 5.7 g/dL
- gamma-GTP (6 h): 1.2 IU/L
- TERMINAL_BW (9 h): 208.2 g
- APTT (9 h): 16.2 s
- Bas (9 h): 0%
- Eos (9 h): 0.8%
- Fbg (9 h): 234.8 mg/dL
- Hb (9 h): 13.6 g/dL
- Ht (9 h): 40.6%
- Lym (9 h): 74.6%
- MCH (9 h): 21.6 pg
- MCHC (9 h): 33.5%
- MCV (9 h): 64.4 fL
- Mono (9 h): 5.2%
- Neu (9 h): 19.6%
- PT (9 h): 12.2 s
- Plat (9 h): 105.2 x10_4/uL
- RBC (9 h): 631 x10_4/ul
- Ret (9 h): 7.4%
- WBC (9 h): 95.5 x10_2/uL
- KIDNEY_L (9 h): 1 g
- KIDNEY_R (9 h): 1 g
- KIDNEY_TOTAL (9 h): 2 g
- LIVER (9 h): 9.1 g
- A/G (9 h): 1.9
- ALP (9 h): 623.4 IU/L
- ALT (9 h): 27 IU/L
- AST (9 h): 58.8 IU/L
- BUN (9 h): 11.2 mg/dL
- CRE (9 h): 0.6 mg/dL
- Ca (9 h): 10 mg/dL
- Cl (9 h): 105.2 meq/L
- DBIL (9 h): 0.008 mg/dL
- GLC (9 h): 181.2 mg/dL
- IP (9 h): 11 mg/dL
- K (9 h): 5 meq/L
- LDH (9 h): 86.8 IU/L
- Na (9 h): 139.4 meq/L
- PL (9 h): 126.4 mg/dL
- RALB (9 h): 3.8 g/dL
- TBIL (9 h): 0.3 mg/dL
- TC (9 h): 71.6 mg/dL
- TG (9 h): 42.8 mg/dL
- TP (9 h): 5.8 g/dL
- gamma-GTP (9 h): 1.2 IU/L
- TERMINAL_BW (24 h): 225.6 g
- APTT (24 h): 15.9 s
- Bas (24 h): 0%
- Eos (24 h): 1.2%
- Fbg (24 h): 220.2 mg/dL
- Hb (24 h): 13.9 g/dL
- Ht (24 h): 41.4%
- Lym (24 h): 75%
- MCH (24 h): 21.4 pg
- MCHC (24 h): 33.5%
- MCV (24 h): 63.7 fL
- Mono (24 h): 6.4%
- Neu (24 h): 17.4%
- PT (24 h): 11.9 s
- Plat (24 h): 115 x10_4/uL
- RBC (24 h): 650 x10_4/ul
- Ret (24 h): 7.2%
- WBC (24 h): 109 x10_2/uL
- KIDNEY_L (24 h): 1 g
- KIDNEY_R (24 h): 1 g
- KIDNEY_TOTAL (24 h): 2 g
- LIVER (24 h): 10.9 g
- A/G (24 h): 2.1
- ALP (24 h): 682.4 IU/L
- ALT (24 h): 32.2 IU/L
- AST (24 h): 61 IU/L
- BUN (24 h): 16.8 mg/dL
- CRE (24 h): 0.6 mg/dL
- Ca (24 h): 10.4 mg/dL
- Cl (24 h): 104.6 meq/L
- DBIL (24 h): 0.006 mg/dL
- GLC (24 h): 188.8 mg/dL
- IP (24 h): 7.8 mg/dL
- K (24 h): 5.3 meq/L
- LDH (24 h): 91.6 IU/L
- Na (24 h): 138.8 meq/L
- PL (24 h): 149.4 mg/dL
- RALB (24 h): 4 g/dL
- TBIL (24 h): 0.3 mg/dL
- TC (24 h): 81 mg/dL
- TG (24 h): 100.2 mg/dL
- TP (24 h): 5.9 g/dL
- gamma-GTP (24 h): 1 IU/L
